Experimental data published in patent publication US3966737A, “Fluoro-substituted dibenso[b,f] thiepins” (priority 1973, dated 1976).
Entries after “also recorded” stand apart in the source; their conditions may differ.

How the values were obtained:
Format in all cases: in vivo
[1] = cataleptic effect in rats (intraperitoneal); conditions: for TD50 at 6 h: recorded every 30 minutes over 6 hours, read-out: ED50 (dose at which 50% of the animals are cataleptic)
Procedure: The following compounds were tested:
The test animals are considered to be cataleptic when the homolateral extremities remain in the crossed position for at least 10 seconds. The number of cataleptic animals is recorded every 30 minutes over a 6-hour period.

[2] = Rotating Rod Test (coordinated motor performance of mice); conditions: for ED50: Mus musculus, po, read-out: ED50 (dose which reduces the holding on period of the mice by 50%); for activity in the Rotating Rod Test (in words): compared with chlorpromazine
Procedure: In the Rotating Rod Test, the ability of mice to achieve a coordinated motor performance is investigated. After peroral administration of the test substance, the mice are placed upon a horizontal slowly rotating rod and the time they remain […] the rod is recorded.

[3] = system: turnover of dopamine in the basal ganglions; experiment: Determination of Homovanillinic Acid (HVA) in rat brain; conditions: rats; for Increase in HVA, %: two hours, titer in untreated rats set at 100%
Excerpt: […] Thereafter, the homovanillinic acid is extracted from the supernatant portion of a homogenized mixture of the brains of the treated rats into butyl acetate and later into an aqueous solution and is oxidized with potassium ferric cyanide to a fluorescent dimer. […] The homovanillinic acid titer in untreated rats is arbitrarily set at 100%.

[4] = "Pole Climbing" Test, conditioned reaction and unconditioned reaction of rats; conditions: for ED50: Rattus norvegicus, po, read-out: ED50 (Blocking of the conditioned reaction); for Quotient-ED10 (Blocking of the unconditioned reaction)/ED50 (Blocking of the conditioned reaction): higher quotient = stronger selectivity of the neuroleptic effect
Excerpt: The test provides information regarding the behavioral reactions of rats. Rats are trained to avoid an electrical stimulus (unconditioned stimulation) which is effected through a base grid a few seconds after an acoustical signal (conditioned stimulation) by climbing up a vertical rod in the test chamber. The blocking of the conditioned reaction is expressed by the parameter ED50 (mg/kg. p.o.), the blocking of the unconditioned reaction is expressed by the parameter ED10 (mg/kg. p.o.).

[5] = rat, in vivo, ip, rats, intraperitoneal
[6] = rats, intraperitoneal, as compared to chlorpromazine

In the case of `CN(C)CCCN1c2ccccc2Sc2ccc(Cl)cc21` [Chlorpromazine, chlorpromazine, reference compound], the “cataleptic effect (in words)” value ([1]; rat, in vivo, ip) is reported as “does demonstrate cataleptic effects”, the ED50 [2] is reported as 5 mg/kg and the “Increase in HVA, %” value ([3]; 20 mg/kg p.o.) is reported as 321%. The ED50 [4] was 11.6 mg/kg and the “Quotient-ED10 (Blocking of the unconditioned reaction)/ED50 (Blocking of the conditioned reaction)” value (shortened to “Quotient-ED10”) ([4]; rats, p.o.) was 3.5.

In the case of `CN1CCN(C2Cc3cc(Cl)ccc3Sc3cc(F)ccc32)CC1.O=C(O)/C=C\C(=O)O` (stereo not drawn) [Product A, 1-(2-chloro-7-fluoro-10,11-dihydro-dibenzo[b,f]thiepin-10-yl)-4-methylpiperazine maleate], the TD50 at 6 h [1, 5] is reported as 70 mg/kg, the “cataleptic effect (in words)” value [1, 6] is reported as “only very weak cataleptic effect” and the ED50 ([2]; mice, peroral) is reported as 5.8 mg/kg. The “activity in the Rotating Rod Test (in words)” value ([2]; mice, peroral, maleate) was “strong activity; also recorded: activity approximates that of chlorpromazine”, the “activity in the HVA test relative to chlorpromazine (in words)” value [3] was “nearly as potent as that of chlorpromazine” and the “Increase in HVA, %” value ([3]; 50 mg/kg p.o.) was 280%. For the same compound, the ED50 ([4]; rats, p.o.) was 30 mg/kg, the “quality (selectivity) of the neuroleptic activity relative to chlorpromazine (in words)” value ([4]; rats, p.o.) was “about equal to that of chlorpromazine” and the “strength of the neuroleptic activity relative to chlorpromazine (in words)” value ([4]; rats, p.o.) was “about half that of chlorpromazine”. The “Quotient-ED10” value ([4]; rats, p.o.) was 3.3.

In the case of `CN1CCN(C2Cc3ccc(Cl)cc3Sc3ccc(F)cc32)CC1.O=C(O)/C=C\C(=O)O` (stereo not drawn) [Product B, 1-(3-chloro-8-fluoro-10,11-dihydro-dibenzo[b,f]thiepin-10-yl)-4-methylpiperazine maleate], the TD50 at 6 h [1, 5] is reported as 100 mg/kg, the “cataleptic effect (in words)” value [1, 6] is reported as “only very weak cataleptic effect” and the ED50 ([2]; mice, peroral) is reported as 3.1 mg/kg. For the same compound, the “activity in the Rotating Rod Test (in words)” value ([2]; mice, peroral) was “superior to chlorpromazine”, the ED50 ([4]; rats, p.o.) was 27 mg/kg and the “quality (selectivity) of the neuroleptic activity relative to chlorpromazine (in words)” value ([4]; rats, p.o.) was “considerably superior to that of chlorpromazine”. The “strength of the neuroleptic activity relative to chlorpromazine (in words)” value ([4]; rats, p.o.) was “about half of that of chlorpromazine” and the “Quotient-ED10” value ([4]; rats, p.o.) was 11.0.

In the case of `O=C(O)/C=C\C(=O)O.OCCCN1CCN(C2Cc3cc(Cl)ccc3Sc3ccc(F)cc32)CC1` (stereo not drawn) [Product C, 4-(2-chloro-8-fluoro-10,11-dihydro-dibenzo[b,f]thiepin-10-yl)-1-piperazinepropanol maleate], the TD50 at 6 h [1, 5] is reported as 64 mg/kg, the “cataleptic effect (in words)” value [1, 6] is reported as “only very weak cataleptic effect” and the “activity in the HVA test relative to chlorpromazine (in words)” value [3] is reported as “nearly as potent as that of chlorpromazine”. The “Increase in HVA, %” value ([3]; 50 mg/kg p.o.) was 273%.
